Source: US20020123503A1, “Cabergoline pharmaceutical compositions and methods of use thereof” (priority 2000, published 2002)

Experiment: Chemical stability of cabergoline and its tablets
Type: physicochemical
Conditions: normal wet granulation techniques

C=CCN1C[C@H](C(=O)N(CCCN(C)C)C(=O)NCC)C[C@@H]2c3cccc4[nH]cc(c34)C[C@H]21 [cabergoline, 1((6-allylergolin-8.beta,-yl)-carbony.)-1-(3-(dimethylamino)propyl)-3ethylurea]
degradation of the active ingredient: did degrade
